Source: patent US6908904B2, “Pharmaceutical preparation and method for treatment of diabetes” (priority 2000, dated 2005)

How the values were obtained:
[1] = uptake of radiolabeled sulfatide analogues in liver after intraperitoneal injection; assay type: in vivo; details: 150 nmol i.p., ob/ob mice, FIG. 6A; for degradation or accumulation in liver, 6 h vs 24 h: 6 h and 24 h after i.p.; for uptake in liver: tritium-labeled, scintillation counting
From the text: (§1) Native sulfatide isolated from pig brain and structurally characterized by mass spectrometry was modified with regard to the fatty acid composition and tritiated in the sphingosine base. These analogues were administrated intraperitoneally to diabetic ob/ob mice and their uptake in liver and pancreas analyzed after lipid extraction of dissected organs. The aim was to explore whether the exogenously administrated sulfatide was taken up by pancreas and thereby open a possibility to substitute for the quantitative and qualitative alterations of sulfatide seen in the diabetes type 2 models.
(§2) Sulfatide was tritium labeled in the ceramide portion by catalytic hydrogenation with Pd(OAc)2/NaB^3H4. The labeled sulfatide was mixed with unlabelled sulfatide to the required specific activity.
(§3) The fatty acid was removed from native pig brain sulfatide by weak alkaline methanolysis at 80° C. The formed lysosulfatide was, after chromatographic purification, reacylated with respective fatty acid chloride in aqueous sodium acetate-tetrahydrofuran.
(§4) These mice were 12 weeks old and the mean value of the highest blood glucose was […]. At sacrifice the mice were anaesthetized with CO2 and killed by dislocation of the neck vertebrae. This is outlined in Table 2. The liver and pancreas were dissected immediately. The organ were quick-frozen and thawed at analyses (within 4 days).
(§5) The organs were homogenized and the lipids extracted with chloroform/methanol/water. The lipid extracts were evaporated, re-dissolved in chloroform/methanol/water and separated by silica gel chromatography to remove other lipids. The sulfatide containing fraction was used for counting by scintillation.
(§6) The results of the scintillation measurement are presented in FIG. 6A and FIG. 6B—FIG. 6A presenting liver data and FIG. 6B pancreas data—as cpm uptake in total, cpm/mg wet weight of tissue, cpm/mg of tissue protein and % of given cpm residing in the organ

[2] = uptake of radiolabeled sulfatide analogues in pancreas after intraperitoneal injection; assay type: in vivo; details: 150 nmol i.p., ob/ob mice, FIG. 6B; for degradation or accumulation in pancreas, 6 h vs 24 h: 6 h and 24 h after i.p.; for uptake in pancreas: tritium-labeled, scintillation counting
From the text: as §1, §2, §3, §4, §5, §6

insulin crystals = test: in vitro preservation of insulin crystals stored with sulfatide isoforms; details: compared to C24:0 analogue, native pig brain sulfatide and insulin stored without sulfatide, FIG. 5
From the text: The preservation of insulin crystals, a requirement for storage of an insulin pool that can be released upon raised blood glucose, is increased for sulfatide C16:0 compared to other sulfatide isoforms. […] This is illustrated in FIG. 5.

[3] = further uptake study of sulfatide analogues in pancreas (Example 3); assay type: in vivo; details: i.p., ob/ob mice; FIGS. 7-10
Description: These experiments were performed as in Example 3, but only the uptake in pancreas was studies.
ob/ob mice was thus given C12, C14, C16 och C18 analogues of sulfatide intraperitoneally in the way described above.
The results are illustrated in FIGS. 7-10.

[4] = tested on: T-cell response to insulin; test: T-cell response to insulin; assay type: cell-based; details: sulfatide in combination with insulin
From the text: The fact that sulfatide is processed through the same intracellular route as insulin further supports the findings according to the invention. Sulfatide is involved in normal processing of insulin, from proinsulin to secreted monomeric insulin. It is involved in the folding and oxidation of proinsulin, and is thus required for insulin formation, it is involved in the preservation of insulin crystals in secretory granules, and is thus required for the storage of the insulin pool, prevents deterioration and fibril formation, and it is involved in the transformation of insulin from hexamer via dimer to monomer form at secretion, and this last conversion to monomer is required for biological activity. Furthermore, sulfatide might be needed in combination with insulin in order to affect the insulin receptors in a proper way and to avoid development of insulin resistance.

[5] = listed as C16:0 sulfatide analogue

Row | Compound | degradation or accumulation in liver, 6 h vs 24 h [1] | uptake in liver [1] | uptake in liver ([1]; listed as C8:0) | degradation or accumulation in pancreas, 6 h vs 24 h [2] | degradation or accumulation in pancreas, 6 h vs 24 h ([2]; listed as C8:0) | uptake in pancreas [2] | preservation of insulin crystals (insulin crystals) | preservation of insulin crystals (insulin crystals; listed as isoform of sulfatide with 16 carbon atoms in the fatty acid) | degradation or accumulation in pancreas, 6 h vs 24 h ([2]; listed as C 16) | degradation or accumulation in pancreas, 6 h vs 24 h [2, 5] | uptake in pancreas ([2]; listed as C16) | uptake in pancreas [2, 5] | uptake in pancreas (Example 3) [3] | degradation or accumulation in pancreas, 6 h vs 24 h ([2]; listed as C24) | T-cell response to insulin [4]
1 | CCCCCCCCCCCCC/C=C/[C@@H](O)[C@H](CO[C@@H]1O[C@H](CO)[C@H](O)[C@H](OS(=O)(=O)O)[C@H]1O)NC(=O)CCCCCCC [C8:0 analogue] | rapidly degraded | preferentially taken up in liver | rapidly removed from circulation to the liver and degraded | neither accumulation or degradation was noticed | no accumulation | much lower than for the other two analogues | – | – | – | – | – | – | – | – | –
2 | CCCCCCCCCCCCC/C=C/[C@@H](O)[C@H](CO[C@@H]1O[C@H](CO)[C@H](O)[C@H](OS(=O)(=O)O)[C@H]1O)NC(=O)CCCCCCCCCCCCCCC [C16:0 analogue] | slight accumulation | higher than for the C24:0 | – | – | – | – | significant effect on the preservation | significant effect on the preservation of insulin crystals | accumulation | accumulation after 24 hours | efficiently taken up in pancreas | most efficiently taken up | most interesting results | – | –
3 | CCCCCCCCCCCCC/C=C/[C@@H](O)[C@H](CO[C@@H]1O[C@H](CO)[C@H](O)[C@H](OS(=O)(=O)O)[C@H]1O)NC(=O)CCCCCCCCCCCCCCCCCCCCCCC [C24:0 analogue] | slight reduction | lower uptake in liver as compared to the C8:0 analogue | – | slight reduction | – | efficiently taken up in pancreas | – | – | – | – | – | – | – | slight degradation | –
4 | galactosylceramide-3-O-sulfate [sulfatide] | – | – | – | – | – | – | – | – | – | – | – | – | – | – | inhibited the T-cell response to insulin
